One assay deals with T1, LTB-4 receptor (Homo sapiens, UniProt Q15722).
T1 construct: to intact human neutrophils; endogenous in cells; host or cells: intact neutrophils prepared from human venous blood
Nature of the assay: LTB-4 receptor binding assay: binding of [H^3]-LTB-4 to intact human neutrophils. The conditions noted are these: [H^3]-LTB-4, intact human neutrophils. As for the experimental part:
LTB-4 receptor binding is dete mined in the following assay involving receptor binding of [H^3 ]-LTB-4 to intact human neutrophils.
(§1) LTB-4 is purchased as a solution in either ethanol or DMSO (Biomol, Plymouth Meeting, Pa.) and diluted into Hank's balanced Salt Solution (HBSS) before use. For in vitro tests, test compounds are dissolved in DMSO to produce stock solution of 10 mM. Dilutions are made so that the final concentration of DMSO is 0.35%.
Neutrophils are prepared from […] human venous blood. Blood (25 ml) is mixed with HESPAN (15 ml)(DuPont, Wilmington, Del.) and allowed to stand at room temperature for 40 minutes. The supernatant is removed and centrifuged for 10 minutes at 400×g. The resulting pellet is resuspended in phosphate-buffered saline without calcium and magnesium (GIBCO, Grand Islands N.Y.). Thirty-five ml of the resuspended cells is layered over 15 ml of Ficoll-Paque (Sigma, St Louis, Mo.) and then centrifuged for 15 minutes at 420×g. The resulting cell pllet is resuspended in 10 ml of phosphate-buffered saline without calcium and magnesium. Twenty-five ml of deionized water are added to the suspension for 20 seconds followed by the same volume of buffer at twice the normal concentration. The suspension is centrifuged for 5 minutes at 200×g,and the pellet resuspended in Hank's Balanced Salt Solution (HBSS).
Binding of [H^3 ]-LTB-4 to neutrophils is measured as described by Gorman and Lin, Methods Enzymol. 141: 372-378 (1987) and Jackson et al., J. Pharmacol.Exp. Ther., Vol. 262, p. 80 (1992). Intact human ntutrophils (3×106) are added to HBSS containing 0.5 nM [H^3 ]-LTB-4 (specific activity 32 Ci/mmol, DuPont-NEN, Boston, Mass.) and compound (final volume 0.5 ml). After incubating for 20 minutes at 0° C., the bound radioactivity is collected on Whatman GF/C filters by vacuum filtration using a Brandel harvester. The filters are washed twice with ice cold HBSS. Filters are counted using Formula-989 scintillation cocktail (DuPont-NEN, Boston, Mass.). Non-specific binding is determined in the presence of 300 nM LTB-4 (Biomol Res. Labs, Plymouth Meeting, Pa.).

For assay [1], the system named is LTB-4-induced intracellular calcium rise in human neutrophils. Description: Inhibition of the LTB-4-induced intracellular calcium rise in human neutrophils. The assay is classed as cell-based. The conditions noted are these: Neutrophil, read-out: Concentration at which calcium rise is inhibited. As for the experimental part:
as §1
Inhibition of LTB-4 is determined by measuring the inhibition of the LTB-4-induced intracellular calcium rise in human neutrophils. Increases in intracellular Ca++ are measured as described by Seligmann et al., Agents and Actions, Vol. 21, p. 375 (1987). Neutrophils are purified from citrated human venous blood by sedimentation in HESPAN as described above. Neutrophils are isolated from the resulting pellet by centrifugal elutriation (Berkow et al., J. Lab. Clin. Med., Vol. 104, p. 698, 1984). Except were noted the neutrophils are incubated with acetoxymetbyl ester of Fura-2 (0.2 μM)(Molecular Probes Inc.) for 30 minutes at 37° C. in HEPES-buffered Hank's solution containing Ca++ and Mg++. The Fura-2 loaded cells are washed and stored on ice at a concentration of 2×10^6 cells/ml in 10 mM HEPES-buffered HBSS without Ca++ and Mg++. Fifteen minutes before assay, 1.5 ml of the cell suspension is mixed with 10 μl of 0.15 M Ca++ and 0.15 M Mg++ by stirring at 37° C. Compounds are added 40 seconds before the addition of 1 nM LTB-4. The change in fluorescence was followed using a DMX 1000 spectrofluorometer (SLM-Aminco Instruments, Urbana Ill.).

Assay [2] has as its system arachidonic acid-induced mouse ear inflammation. Nature of the assay: Arachidonic acid-induced mouse ear inflammation model. The assay is classed as in vivo. The protocol:
The methodology used is essentially that described by Young et al., J. Invest. Dermatol. 82, 367-371 (1984). Female mice (A/J, Jakson Labs., Bar Harbor, Me.) weighing 20 gm are divided into groups consisting of six mice per treatment group. They are fasted overnight. Arachidonic acid (2 mg in 15 μl acetone) (Sigma, St Louis, Mo.) is applied to the inner surface of the right ear. The left ear received 15 μl of acetone. […] […] Edema is determined by subtracting the weight of the left ear punch from that of the right ear. As the marker for neutrophil infiltration, myeloperoxidase activity is measured as described by Bradley et al., J. Invest. Dermatol., Vol. 78, p. 206 (1982). The right ear punches from the both the vehicle and compound treated groups are used. The percentage of inhibition is calculated by comparing the myeloperoxidase activity of the compound treated groups with those of the vehicle treated group.

Where [3] appears, read: 3 mg/Kg p.o., 1.5 hours post administration.
Setting [4] is: 10 mg/Kg p.o., 18 hours post administration.

T1 sequence (Q15722 whole entry): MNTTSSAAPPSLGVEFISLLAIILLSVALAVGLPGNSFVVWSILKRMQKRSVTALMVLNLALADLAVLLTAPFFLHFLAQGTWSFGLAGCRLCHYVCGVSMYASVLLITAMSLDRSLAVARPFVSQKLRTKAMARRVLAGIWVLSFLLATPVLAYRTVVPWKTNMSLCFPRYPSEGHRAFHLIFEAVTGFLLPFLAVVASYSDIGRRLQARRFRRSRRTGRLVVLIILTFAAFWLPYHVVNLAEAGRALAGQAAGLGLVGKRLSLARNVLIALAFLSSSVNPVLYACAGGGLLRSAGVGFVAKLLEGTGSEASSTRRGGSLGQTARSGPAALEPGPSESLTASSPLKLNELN

For the molecule `CCN(CC)C(=O)/C=C(\C)c1ccc(OCc2c(F)cccc2F)c(OCC(=O)O)c1` [Example 2y, (E)-[5-(2-Diethylcarbamoyl-1-methylvinyl)-2-(2,6-difluorobenzyloxy)-phenoxy]-acetic acid], the IC50 on LTB-4 receptor was approximately 0.048 µM; in assay [1] it was approximately 0.018 µM. Besides, the Inhibition of edema entry in assay [2] (setting [3]) and in assay [2] (setting [4]) was “inhibit” each time. The “Inhibition of myeloperoxidase activity” value in assay [2] (setting [3]) and in assay [2] (setting [4]) was “inhibit” in each case.
Consider `CCN(CC)C(=O)/C=C(\C)c1ccc(OCc2c(F)cccc2F)c(CC(=O)O)c1` [Example 8a, (E)-[5-(2-diethylcarbamoyl-1-methyl-vinyl)-2-(2,6-difluorobenzyloxy)-phenyl]-acetic acid], for which the IC50 at LTB-4 receptor is approximately 0.087 µM; in assay [1], approximately 0.022 µM. The Inhibition of edema result in assay [2] (setting [3]) and in assay [2] (setting [4]) was “inhibit” throughout. In addition, the “Inhibition of myeloperoxidase activity” value in assay [2] (setting [3]) and in assay [2] (setting [4]) was “inhibit” throughout.
With `CCN(CC)C(=O)/C=C(\C)c1ccc(OC(C)c2ccccc2)c(CC(=O)O)c1` (stereo not drawn) [Example 8b, (E)-[5(2-diethylcarbamoyl-1-methylvinyl)-2-(1-phenyl-ethoxy)-phenyl]-acetic acid], the IC50 on LTB-4 receptor is approximately 0.074 µM; in assay [1], approximately 0.008 µM. The Inhibition of edema result in assay [2] (setting [3]) and in assay [2] (setting [4]) was “inhibit” each time. Besides, the “Inhibition of myeloperoxidase activity” value in assay [2] (setting [3]) and in assay [2] (setting [4]) was “inhibit” throughout.

(Values after patent US6291530A, “Aryl-substituted acrylamides with Leukotriene B4 (LTB-4) receptor antagonist activity” (Novartis AG, priority 1999, dated 2001).)
